# Test results as given in the supplement of paper PMC10307832.
# Columns and labels:
# Assay in all cases: relative viability (nuclei count vs DMSO), 5 days (fraction); higher = more cells survive
# AZD8055 + Vorinostat = compound: COc1ccc(-c2ccc3c(N4CCOC[C@@H]4C)nc(N4CCOC[C@@H]4C)nc3n2)cc1CO [AZD8055] + O=C(CCCCCCC(=O)Nc1ccccc1)NO [Vorinostat] (partner 1 µM)
# Procedure, shortened: (§1)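 After 5 days of treatment, lung cancer cells in 1536-well plates were fixed and stained in a single step (final 0.05% Triton X-100, 1% formaldehyde, 1 ug/ml Hoechst) and their nuclei counted on 4× images. Treatment had been applied by pin tool the day after seeding as one drug alone or as a fixed anchor-drug dose with five library-drug doses (not always all listed) in √10 steps. Relative viability is the nuclei count of treated wells divided by that of vehicle wells, and values are medians of duplicate plates.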
# AZD8055 + Pemetrexed = compound: COc1ccc(-c2ccc3c(N4CCOC[C@@H]4C)nc(N4CCOC[C@@H]4C)nc3n2)cc1CO [AZD8055] + Nc1nc2[nH]cc(CCc3ccc(C(=O)N[C@@H](CCC(=O)O)C(=O)O)cc3)c2c(=O)[nH]1 [Pemetrexed] (partner 0.2 µM)
# Procedure, shortened: as §1
# AZD8055 + Linsitinib = compound: COc1ccc(-c2ccc3c(N4CCOC[C@@H]4C)nc(N4CCOC[C@@H]4C)nc3n2)cc1CO [AZD8055] + C[C@]1(O)C[C@@H](c2nc(-c3ccc4ccc(-c5ccccc5)nc4c3)c3c(N)nccn32)C1 [Linsitinib] (partner 1 µM)
# Procedure, shortened: as §1
# AZD8055 + Navitoclax = compound: COc1ccc(-c2ccc3c(N4CCOC[C@@H]4C)nc(N4CCOC[C@@H]4C)nc3n2)cc1CO [AZD8055] + CC1(C)CCC(c2ccc(Cl)cc2)=C(CN2CCN(c3ccc(C(=O)NS(=O)(=O)c4ccc(N[C@H](CCN5CCOCC5)CSc5ccccc5)c(S(=O)(=O)C(F)(F)F)c4)cc3)CC2)C1 [Navitoclax] (partner 0.5 µM)
# Procedure, shortened: as §1
Cell Line,relative viability (AZD8055 + Vorinostat; first compound 0.01 µM),relative viability (AZD8055 + Vorinostat; first compound 0.03162 µM),relative viability (AZD8055 + Vorinostat; first compound 0.1 µM),relative viability (AZD8055 + Vorinostat; first compound 0.3162 µM),relative viability (AZD8055 + Vorinostat; first compound 1 µM),relative viability (AZD8055 + Pemetrexed; first compound 0.01 µM),relative viability (AZD8055 + Pemetrexed; first compound 0.03162 µM),relative viability (AZD8055 + Pemetrexed; first compound 0.1 µM),relative viability (AZD8055 + Pemetrexed; first compound 0.3162 µM),relative viability (AZD8055 + Pemetrexed; first compound 1 µM),relative viability (AZD8055 + Linsitinib; first compound 0.01 µM),relative viability (AZD8055 + Linsitinib; first compound 0.03162 µM),relative viability (AZD8055 + Linsitinib; first compound 0.1 µM),relative viability (AZD8055 + Linsitinib; first compound 0.3162 µM),relative viability (AZD8055 + Linsitinib; first compound 1 µM),relative viability (AZD8055 + Navitoclax; first compound 0.01 µM),relative viability (AZD8055 + Navitoclax; first compound 0.03162 µM),relative viability (AZD8055 + Navitoclax; first compound 0.1 µM),relative viability (AZD8055 + Navitoclax; first compound 0.3162 µM),relative viability (AZD8055 + Navitoclax; first compound 1 µM)
NCI-H358,0.775,0.701,0.624,0.207,0.121,0.184,0.176,0.158,0.145,0.129,0.728,0.561,0.429,0.209,0.236,–,–,–,–,–
NCI-H522,0.898,0.731,0.876,0.666,0.499,0.992,0.943,0.962,0.518,0.467,–,–,–,–,–,–,–,–,–,–
NCI-H650,0.496,0.352,0.478,0.231,0.146,0.981,0.691,0.843,0.371,0.299,0.889,0.575,0.556,0.342,0.293,–,–,–,–,–
NCI-H661,0.866,0.791,0.707,0.465,0.4,1.02,0.882,0.868,0.579,0.418,0.567,0.41,0.516,0.253,0.293,–,–,–,–,–
NCI-H727,1.3,1.12,1.18,0.869,0.778,–,–,–,–,–,0.246,0.246,0.302,0.28,0.248,0.432,0.397,0.324,0.168,0.215
NCI-H1563,–,–,–,–,–,0.735,0.577,0.602,0.563,0.471,0.971,0.802,0.699,0.625,0.743,–,–,–,–,–
NCI-H1648,0.501,0.451,0.293,0.287,0.273,0.942,0.675,0.641,0.324,0.285,–,–,–,–,–,–,–,–,–,–
NCI-H1650,0.729,0.436,0.521,0.265,0.236,0.403,0.463,0.389,0.39,0.29,–,–,–,–,–,1.01,1.15,1.07,0.519,0.502
NCI-H1703,–,–,–,–,–,–,–,–,–,–,0.514,0.576,0.623,0.102,0.29,0.944,0.702,0.517,0.292,0.337
NCI-H1792,–,–,–,–,–,0.764,0.343,0.193,0.108,0.108,0.292,0.233,0.223,0.128,0.101,0.89,0.518,0.51,0.13,0.086
NCI-H2170,0.815,0.734,0.487,0.271,0.226,0.287,0.288,0.255,0.24,0.248,–,–,–,–,–,0.59,0.517,0.295,0.189,0.191
NCI-H2342,0.766,0.702,0.651,0.501,0.53,0.748,0.785,0.542,0.49,0.549,–,–,–,–,–,–,–,–,–,–
SW 900,0.461,0.499,0.538,0.325,0.265,0.493,0.469,0.512,0.353,0.241,–,–,–,–,–,–,–,–,–,–
